From patent publication US4517002A (priority 1983, dated 1985)

Legend:
urease [1] = assay type: biochemical; conditions: pH 7.2
urease [2] = assay type: biochemical; conditions: pH 5.4

NP(N)(=O)OCCCCl [Experiment 8] was tested, and the “% Inhibition Cazenovia Soil” value (urease [1]) was 41% and the “% Inhibition Wisconsin Soil” value (urease [2]) was 22%.

For NP(N)(=O)OC1C(Cl)(Cl)CCCC1(Cl)Cl [Experiment 12], the “% Inhibition Cazenovia Soil” value (urease [1]) was 38%.

For NP(N)(=O)OCCBr [Experiment 3], the “% Inhibition Cazenovia Soil” value (urease [1]) was 85%.

NP(N)(=O)OC1CCCCC1 [Experiment 11] was tested, and the “% Inhibition Cazenovia Soil” value (urease [1]) was 85%.

In the case of COP(N)(N)=O [Experiment 9], the “% Inhibition Cazenovia Soil” value (urease [1]) is reported as 34%.

NP(N)(=O)OCC(Cl)(Cl)Cl [Experiment 2] was tested, and the “% Inhibition Cazenovia Soil” value (urease [1]) was 97% and the “% Inhibition Wisconsin Soil” value (urease [2]) was 87%.

For NP(N)(=O)OCC(F)(F)F [Experiment 1], the “% Inhibition Cazenovia Soil” value (urease [1]) was 97% and the “% Inhibition Wisconsin Soil” value (urease [2]) was 90%.

In the case of NP(N)(=O)OCCCl [Experiment 4], the “% Inhibition Cazenovia Soil” value (urease [1]) is reported as 84%.

In the case of NP(N)(=O)OCc1ccccc1 [Experiment 7], the “% Inhibition Cazenovia Soil” value (urease [1]) is reported as 69% and the “% Inhibition Wisconsin Soil” value (urease [2]) is reported as 20%.

For C=CCOP(N)(N)=O [Experiment 6], the “% Inhibition Cazenovia Soil” value (urease [1]) was 65% and the “% Inhibition Wisconsin Soil” value (urease [2]) was 38%.

In the case of CCCOP(N)(N)=O [Experiment 10], the “% Inhibition Cazenovia Soil” value (urease [1]) is reported as 15%.
